Patent US9174960B2, “Compounds useful against kinetoplastideae parasites” (CENTRE NATIONAL DE LA RECHERCHE SCIENTIFIQUE, priority 2009, dated 2015)
Where a name gives a salt, the structure may show the parent alone. Read-outs that look alike come from different tables or passages of the source.

Key:
[1] = system: MRC-5SV2 cells; assay: Cytotoxicity against human cell lines (resazurin); settings: human lung fibroblasts MRC-5
[2] = system: Trypanosoma brucei brucei Squib 427 strain (suramin-sensitive); assay: In vitro Trypanosoma brucei brucei growth assay (resazurin); assay type: cell-based
Experimental: The strain is maintained in Hirumi (HMI-9) medium, supplemented with 10% FCSi. […] After 3 d incubation, parasite growth is assessed fluorimetrically after addition of resazurin. After 24 h at 37° C., fluorescence is measured (λex 550 nm, λem 590 nm).

[3] = system: Trypanosoma cruzi, Tulahuen CL, β galactosidase strain (nifurtimox-sensitive); assay: In vitro Trypanosoma cruzi assay on MRC-5 cells (CPRG); assay type: cell-based; settings: for trypanocidal activity against T. cruzi (in words): in vitro
Experimental: Trypanosoma cruzi, Tulahuen CL, β galactosidase strain (nifurtimox-sensitive) is used. The strain is maintained on MRC-5SV2 (human lung fibroblast) cells in MEM medium, supplemented with […] L-glutamine, 16.5 mM NaHCO3, and 5% FCSi. All cultures and assays are conducted at 37° C. under an atmosphere of 5% CO2. Assays are performed in sterile 96-well microtiter plates, each well containing 10 μl of the watery compound dilutions together with 190 μl of MRC-5 cell/parasite inoculum (2·10^4 cells/ml±2·10^5 parasites/ml). Parasite growth is compared to untreated-infected controls (100% growth) and non-infected controls (0% growth) after 7 d incubation. Parasite burdens are assessed after adding the substrate CPRG (chlorophenolred β-D-galactopyranoside): 50 μl/well of a stock solution containing 15.2 mg CPRG+250 μl Nonidet in 100 ml PBS. The change in color is measured spectrophotometrically at 540 nm after 4 h incubation at 37° C.

[4] = system: Primary peritoneal mouse macrophages; assay: Toxicity against mouse macrophages (host cells of the L. infantum assay); assay type: cell-based; settings: mouse macrophages (L. inf)
Experimental: (§1) The Leishmania infantum MHOM/MA (BE)/67 strain is used. The strain is maintained in the Golden Hamster and spleen amastigotes are collected for preparing infection inocula. Primary peritoneal mouse macrophages are used as host cell and are collected 2 d after peritoneal stimulation with a 2% potato starch suspension. […] After 5 d incubation, parasite burdens (mean number of amastigotes/macrophage) are microscopically assessed after Giemsa staining.

[5] = system: Trypanosoma brucei brucei CMP (fast strain); assay: Trypanocidal activity in vivo in T. brucei-infected mice; settings: T. brucei-infected Swiss mice
Experimental: Animals: Swiss mice (female 18-20 g, Janvier, Le Genest St Isle, France) are randomly allocated to groups of 6 animals each. Drinking water and food are available ad libitum throughout the experiment (except when the treatment is given by oral route; in this condition, the treatment is given after 12 h of animal fasting).
Parasite: Trypanosoma brucei brucei CMP (fast strain) is maintained in the laboratory by mechanical intraperitoneal sub-passage every three days in Swiss mice. The infection inoculum is prepared by taking blood collected from a clinically ill donor mouse and diluted in pH 7.2 PBS to obtain an infection inoculum of about 10^5 trypanosomes/ml suspension. Mice are infected by intraperitoneal injection of 0.1 ml of parasite suspension (=10^4 parasites).
Test substances: The reference compound is melarsoprol.
Test compounds are analytically pure compounds.
Formulations: The compounds are formulated in 100% DMSO. Clear solutions should be obtained. The stock solution is divided in aliquots and stored at −20° C. until use. Aliquots are thawed immediately before treatment. The reference compound melarsoprol is formulated in PBS and stored at −20° C.
Treatment: The first dosing with the test compounds was given approx. 3 hours after artificial infection. • Melarsoprol (Arsobal®): 6 infected mice intraperitoneally treated with 1 mg/kg×4 consecutive days. • Test compounds: 6 infected mice per AMTD×1-5 consecutive days. • Controls: 10 infected mice receiving vehicle only (0.1-0.2 ml) Evaluation Parameters:
Parasitemia was checked microscopically from blood collected at the tail of the mice 2 days after the treatment, and every two days until 30 days post-treatment in case of survival. The trypanocidal activity was evaluated by the mean survival time of treated mice for each dose comparatively to survival time of mice treated with the vehicle alone. Treatment was considered to be successful when the mean survival time exceeds 30 days and the mice remains aparasitemic. […] Cure rate are expressed as percentages.

[6] = Stability of the compound (HPLC analysis, light); assay type: physicochemical
[7] = system: Leishmania infantum MHOM/MA (BE)/67 strain; assay: In vitro Leishmania infantum assay, intracellular amastigotes in primary peritoneal mouse macrophages; assay type: cell-based; settings: L. infantum amastigotes in mouse macrophages, 5 d incubation, reference drug, read-out: IC50 (50% inhibitory concentration), reduction in parasite burden
Experimental: as §1

[8] = system: human African trypanosomiasis (HAT); settings: cited from earlier work
[9] = system: promastigotes of L. major; settings: cited from earlier work
[10] = system: procyclic forms of T. b. brucei; settings: cited from earlier work
[11] = system: bloodstream forms of T. brucei; settings: cited from earlier work
[12] = one single dose at 50 mg/kg i.p.

Row | Structure (SMILES) | toxicity against mammalian (MRC-5) cells (in words) [1] | trypanocidal activity against T. brucei (in words) [2] | trypanocidal activity against T. cruzi (in words) [3] | further results
1 | N#Cc1ccc(/C=C/C(=O)/C=C/c2ccc(C#N)cc2)cc1 [NW307.2, (1E,4E)-1,5-Bis(4-cyanophenyl)penta-1,4-dien-3-one] | without any cytotoxicity | excellent activity | excellent activity | 
2 | O=C1C[C@H](c2ccncc2)S[C@@H](c2ccncc2)C1 (relative stereo) [TG003A23, trans-2,6-di(pyridin-4-yl)dihydro-2H-thiopyran-4(3H)-one] | much less cytotoxicity |  |  | toxicity against mouse macrophages (in words) [4]: much less cytotoxicity
3 | CN1C(c2ccccc2)CC(=O)CC1c1ccccc1 (stereo not drawn) [NW249.1, meso-1-Methyl-2,6-diphenyl-piperidin-4-one] | low toxicity | high trypanocidal activity |  | toxicity against mouse macrophages (in words) [4]: without any toxicity
4 | CN1C(c2ccncc2)CC(=O)CC1c1ccncc1 (centres unmarked) [BJ591, 1-Methyl-2,6-di(pyridine-4-yl)piperidin-4-one] | much less cytotoxicity |  |  | toxicity against mouse macrophages (in words) [4]: much less cytotoxicity
5 | COc1ccc(O)c(/C=C/C(=O)/C=C/c2cc(OC)ccc2O)c1 [NW327.2, (1E,4E)-1,5-Bis(2-hydroxy-5-methoxyphenyl)penta-1,4-dien-3-one] |  |  |  | parasitemia [5, 12]: 0%; parasitemia ([5]; two doses over a two days-period, 25 mg/kg i.p.): 0%
6 | O=C(/C=C/c1ccncc1)/C=C/c1ccncc1 [NW319, (1E,4E)-1,5-Di(pyridin-4-yl)penta-1,4-dien-3-one Dihydrochloride] | high cytotoxicity | excellent trypanocidal activity | excellent trypanocidal activity | parasitemia [5, 12]: 0%; parasitemia ([5]; two doses over a two days-period, 12.5 mg/kg i.p.): 0%
7 | O=C(/C=C/c1ccc(O)c(OC(F)(F)F)c1)/C=C/c1ccc(O)c(OC(F)(F)F)c1 [NW317, (1E,4E)-1,5-Bis(4-hydroxy-3-(trifluoromethoxy)phenyl)penta-1,4-dien-3-one] |  |  |  | light sensitivity (in words) [6]: Light-sensitive
8 | CCCCCCCCCCCCCCCCOP(=O)([O-])OCC[N+](C)(C)C [miltefosine] |  |  |  | IC50 ([7]; Leishmania infantum, Macrophage, 120 h): 5.2 ± 0.8 µM
9 | Nc1nc(N)nc(Nc2ccc([As]3SCC(CO)S3)cc2)n1 (centres unmarked) [melarsoprol] |  |  |  | failure rate after treatment ([8]; late stage case of human African trypanosomiasis): under 7%; overall mortality due to the drug itself ([8]; therapy of late-stage encephalitic disease, patients): more than 5%
10 | O=C(/C=C/c1ccc(OC(F)(F)F)cc1)/C=C/c1ccc(OC(F)(F)F)cc1 [NW254, (1E,4E)-1,5-Bis(4-trifluoromethoxy-phenyl)-penta-1,4-dien-3-one] | without any toxicity | excellent antitrypanosomal activities | excellent antitrypanosomal activities | toxicity against mouse macrophages (in words) [4]: without any toxicity
11 | O=C(/C=C/c1ccccn1)/C=C/c1ccccn1 [BJ621] | high cytotoxicity | excellent trypanocidal activity | excellent trypanocidal activity | 
12 | CC1CS(=O)(=O)CCN1/N=C/c1ccc([N+](=O)[O-])o1 (centres unmarked) [Nifurtimox, reference compound] |  |  |  | IC50 ([3]; Trypanosoma cruzi, MRC5, 168 h, T. cruzi Tulahuen CL on MRC-5 cells, 7 d incubation, reference drug, read-out: IC50, reduction in parasite burdens): 0.845 ± 0.2 µM
13 | O=C(/C=C/c1ccc(C(F)(F)F)cc1)/C=C/c1ccc(C(F)(F)F)cc1 [NW267, (1E,4E)-1,5-Bis(4-trifluoromethyl-phenyl)-penta-1,4-dien-3-one] | without any toxicity | excellent antitrypanosomal activities | excellent antitrypanosomal activities | toxicity against mouse macrophages (in words) [4]: without any toxicity
14 | COc1cc(Br)c(O)c(/C=C/C(=O)/C=C/c2cc(OC)cc(Br)c2O)c1 [NW326.4, (1E,4E)-1,5-Bis(3-bromo-2-hydroxy-5-methoxyphenyl)penta-1,4-dien-3-one] |  |  |  | decomposition ([6]; HPLC analysis, after 5 days): 60%
15 | O=C(/C=C/c1cccnc1)/C=C/c1cccnc1 [NW321, (1E,4E)-1,5-Di(pyridin-3-yl)penta-1,4-dien-3-one Dihydrochloride] | high cytotoxicity | excellent trypanocidal activity | excellent trypanocidal activity | parasitemia [5, 12]: 0%
16 | O=C(O)[C@@H]1[O][Sb](=[O])([O][Sb]2(=[O])[O][C@H]([C@H](O)CO)[C@H](O)[C@H](C(=O)O)[O]2)[O][C@H]([C@H](O)CO)[C@@H]1O.[Na+].[Na+].[Na+] (some centres unmarked) [Pentostam] |  |  |  | IC50 [7]: 6.8 ± 0.9 µM
17 | COc1cc(/C=C/C(=O)/C=C/c2ccc(O)c(OC)c2)ccc1O [NW300, (1E,4E)-1,5-Bis(4-hydroxy-3-methoxyphenyl)penta-1,4-dien-3-one] | very high cytotoxicity | excellent antitrypanosomal activity |  | 
18 | COc1cc(/C=C/C(=O)CC(=O)/C=C/c2ccc(O)c(OC)c2)ccc1O [Curcumin] |  |  |  | LD50 [9]: 37.6 ± 3.5 µM; LD50 [10]: 46.5 ± 4.9 µM; cytotoxicity against bloodstream forms of T. brucei relative to procyclic forms [11]: 10 times
